What was measured:
Assay type in all cases: in vivo
Helianthus annuus = assay: greenhouse pre-emergence treatment, HELAN; conditions: HELAN
Source text: (§1) The culture containers used were plastic pots containing loamy sand with approximately 3.0% of humus as substrate. The seeds of the test plants were sown separately for each species.
(§2) For the pre-emergence treatment, the active compounds, suspended or emulsified in water, were applied directly after sowing by means of finely distributing nozzles. The containers were irrigated gently to promote germination and growth and subsequently covered with transparent plastic hoods until the plants had rooted. This cover caused uniform germination of the test plants unless this was adversely affected by the active compounds.
(§3) Depending on the species, the plants were kept at 10-25° C. and 20-35° C., respectively.
(§4) The test period extended over 2 to 4 weeks. During this time, the plants were tended and their response to the individual treatments was evaluated.
(§5) Evaluation was carried out using a scale from 0 to 100. 100 means no emergence of the plants, or complete destruction of at least the above-ground parts, and 0 means no damage or normal course of growth. A good herbicidal activity is given at values of at least 70, and very good herbicidal activity is given at values of at least 85.
(§6) The respective stated components A and B, and if appropriate, C were formulated as a 10% by weight strength emulsion concentrate and, with addition of the amount of solvent system, introduced into the spray liquor used for applying the active compound. In the examples, the solvent used was water.
(§7) In the examples below, using the method of S. R. Colby (1967) “Calculating synergistic and antagonistic responses of herbicide combinations”, Weeds 15, p. 22ff., the value E, which is expected if the activity of the individual active compounds is only additive, was calculated. E=X+Y−(X·Y/100) where X=effect in percent using herbicide A at an application rate a; • Y=effect in percent using herbicide B at application rate b; • E=expected effect (in %) of herbicide A+herbicide B at application rates a+b.

Polygonum convolvulus = assay: greenhouse pre-emergence treatment, POLCO; conditions: POLCO
Source text: as §1, §2, §3, §4, §5, §6, §7

Setaria viridis [1] = assay: greenhouse pre-emergence treatment, SETVI; conditions: SETVI; for % activity: 21 DAT
Source text: as §1, §2, §3, §4, §5, §6, §7

Galium aparine = assay: greenhouse pre-emergence treatment, GALAP; conditions: GALAP; for % activity, solo application: Table X2
Source text: as §1, §2, §3, §4, §5, §6, §7

Stellaria media = assay: greenhouse pre-emergence treatment, STEME; conditions: 21 DAT
Source text: as §1, §2, §3, §4, §5, §6, §7

Digitaria sanguinalis [2] = assay: greenhouse pre-emergence treatment, DIGSA; conditions: DIGSA; for % activity: 21 DAT
Source text: as §1, §2, §3, §4, §5, §6, §7

Bromus sterilis [3] = assay: greenhouse pre-emergence treatment, BROST; conditions: solo, WG 75%, BROST, 50 gai/ha, 21 DAT
Source text: as §1, §2, §3, §4, §5, §6, §7

Ambrosia elatior = assay: greenhouse pre-emergence treatment, AMBEL; conditions: AMBEL; for % activity: 21 DAT; for % activity, solo application: Table X2
Source text: as §1, §2, §3, §4, §5, §6, §7

Poa annua = assay: greenhouse post-emergence treatment, POAAN; conditions: solo, WG 75%, POAAN, 12.5 gai/ha, 20 DAT
Method in brief: (§8)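 Greenhouse; post-emergence spray at 3–15 cm; aqueous EC formulation; 2–4 weeks; 0–100 visual score.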

Alopecurus myosuroides = assay: greenhouse post-emergence treatment, ALOMY; conditions: solo, WG 75%, ALOMY, 50 gai/ha, 20 DAT
Method in brief: (§9)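 Scoring ran on a 0-100 scale, 100 meaning no emergence or destroyed above-ground parts, over a 2-4 week period; Colby formula E=X+Y−(X·Y/100) gave expected mixture effects. Species grew separately in loamy sand (about 3.0% humus) at 10-25° C or 20-35° C, with water as solvent.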

Papaver rhoeas = assay: greenhouse post-emergence treatment, PAPRH; conditions: solo, WG 75%, PAPRH, 20 DAT
Method in brief: (§10)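 Foliar application to greenhouse-grown plants 3–15 cm tall in humus-containing loamy sand; response assessed on a 0–100 scale after 2–4 weeks, with Colby's E=X+Y−(X·Y/100) as the additive expectation.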

Matricaria chamomilla = assay: greenhouse post-emergence treatment, MATCH; conditions: solo, WG 75%, MATCH, 20 DAT
Method in brief: as §10

Setaria viridis [4] = assay: greenhouse post-emergence treatment, SETVI; conditions: 20 DAT, SETVI
Method in brief: as §9

Digitaria sanguinalis [5] = assay: greenhouse post-emergence treatment, DIGSA; conditions: solo, WG 75%, DIGSA, 100 gai/ha, 20 DAT
Method in brief: as §9

Bromus sterilis [6] = assay: greenhouse post-emergence treatment, BROST; conditions: solo, WG 75%, BROST, 20 DAT
Method in brief: as §9

Brachiaria decumbens [7] = assay: greenhouse post-emergence treatment, BRADC; conditions: 20 DAT, BRADC
Method in brief: as §8

Lolium multiflorum = assay: greenhouse pre-emergence treatment, LOLMU; conditions: 20 DAT, LOLMU
Source text: as §1, §2, §3, §4, §5, §6, §7

Brachiaria decumbens [8] = assay: greenhouse pre-emergence treatment, BRADC; conditions: 20 DAT, BRADC
Source text: as §1, §2, §3, §4, §5, §6, §7

Apera spica-venti = assay: greenhouse pre-emergence treatment, APESV; conditions: Apera spica-venti, 480 h, 20 DAT, flumioxazin WG 51% solo 3.75 gai/ha
Source text: as §1, §2, §3, §4, §5, §6, §7

Avena fatua = assay: greenhouse pre-emergence treatment, AVEFA; conditions: AVEFA, trifludimoxazin solo 36 gai/ha, 20 DAT
Source text: as §1, §2, §3, §4, §5, §6, §7

[9] = solo, WG 75%, 12.5 gai/ha, 21 DAT
[10] = solo, WG 75%, 25 gai/ha, 21 DAT
[11] = solo, WG 75%, 50 gai/ha, 21 DAT
[12] = trifludimoxazin solo 18 gai/ha, 20 DAT
[13] = trifludimoxazin solo 36 gai/ha, 20 DAT
[14] = 4.5 gai/ha (SC 500 g/l), 20 DAT, Table X2
[15] = 4.5 gai/ha (SC 500 g/l), 20 DAT

O=C(Nc1ccc(F)cc1)c1cccc(Oc2cccc(C(F)(F)F)c2)n1 [picolinafen]
% activity (Helianthus annuus; picolinafen solo 12.5 gai/ha, 21 DAT): 10% | % activity (Helianthus annuus; picolinafen solo 50 gai/ha, 21 DAT): 15% | % activity (Helianthus annuus; [9]): 10% | % activity (Helianthus annuus; [10]): 20% | % activity (Helianthus annuus; [11]): 15% | % activity (Polygonum convolvulus; [11]): 20% | % activity (Setaria viridis [1]; picolinafen solo 25 gai/ha): 70% | % activity (Setaria viridis [1]; picolinafen solo 50 gai/ha): 80% | % activity (Setaria viridis [1]; picolinafen solo 100 gai/ha): 85% | % activity (Setaria viridis [1]; picolinafen solo 250 gai/ha): 70% | % activity (Setaria viridis [1]; solo, WG 75%, 12.5 gai/ha): 45% | % activity (Setaria viridis [1]; solo, WG 75%, 50 gai/ha): 80% | % activity (Galium aparine; [9]): 0% | % activity (Galium aparine; [10]): 0% | % activity (Stellaria media; picolinafen solo 25 gai/ha): 20% | % activity (Stellaria media; picolinafen solo 50 gai/ha): 50% | % activity (Stellaria media; picolinafen solo 100 gai/ha): 65% | % activity (Digitaria sanguinalis [2]; picolinafen solo 12.5 gai/ha): 0% | % activity (Digitaria sanguinalis [2]; solo, WG 75%, 25 gai/ha): 30% | % activity (Digitaria sanguinalis [2]; solo, WG 75%, 50 gai/ha): 60% | % activity (Bromus sterilis [3]): 20% | % activity (Ambrosia elatior; picolinafen solo 50 gai/ha): 0% | % activity (Ambrosia elatior; solo, WG 75%, 12.5 gai/ha): 0% | % activity (Ambrosia elatior; solo, WG 75%, 25 gai/ha): 0% | % activity (Ambrosia elatior; solo, WG 75%, 50 gai/ha): 0% | % activity (Poa annua): 40% | % activity (Alopecurus myosuroides): 10% | % activity (Papaver rhoeas; 12.5 gai/ha): 35% | % activity (Papaver rhoeas; 25 gai/ha): 40% | % activity (Papaver rhoeas; 50 gai/ha): 55% | % activity (Papaver rhoeas; 100 gai/ha): 80% | % activity (Matricaria chamomilla; 12.5 gai/ha): 0% | % activity (Matricaria chamomilla; 25 gai/ha): 20% | % activity (Matricaria chamomilla; 50 gai/ha): 20% | % activity (Setaria viridis [4]; picolinafen WG 75% solo 12.5 gai/ha): 30% | % activity (Setaria viridis [4]; solo, WG 75%, 12.5 gai/ha): 30% | % activity (Setaria viridis [4]; solo, WG 75%, 50 gai/ha): 80% | % activity (Digitaria sanguinalis [5]): 75% | % activity (Bromus sterilis [6]; 12.5 gai/ha): 0% | % activity (Bromus sterilis [6]; 25 gai/ha): 0% | % activity (Bromus sterilis [6]; 50 gai/ha): 10% | % activity (Bromus sterilis [6]; 100 gai/ha): 20% | % activity (Brachiaria decumbens [7]; picolinafen WG 75% solo 25 gai/ha): 35% | % activity (Brachiaria decumbens [7]; picolinafen WG 75% solo 50 gai/ha): 50% | % activity (Brachiaria decumbens [7]; solo, WG 75%, 25 gai/ha): 35% | % activity (Brachiaria decumbens [7]; solo, WG 75%, 50 gai/ha): 50%

C#CCN1C(=O)COc2cc(F)c(N3C(=O)C4=C(CCCC4)C3=O)cc21 [flumioxazin]
inhibition at 30 g/ha (Helianthus annuus; Helianthus annuus, 480 h, 20 DAT, flumioxazin WG 51% solo 30 gai/ha): 50% | inhibition at 30 g/ha (Lolium multiflorum; Lolium multiflorum, 480 h, flumioxazin WG 51% solo 30 gai/ha): 65% | inhibition at […] (Polygonum convolvulus; Fallopia convolvulus, 480 h, 20 DAT, flumioxazin WG 51% solo 7.5 gai/ha): 65% | % herbicidal activity (weed control, 0-100 scale) at […] (Galium aparine; Galium aparine, 480 h, 20 DAT, flumioxazin WG 51% solo 7.5 gai/ha): 0% | % herbicidal activity (weed control, 0-100 scale) at 30 g/ha (Galium aparine; Galium aparine, 480 h, 20 DAT, flumioxazin WG 51% solo 30 gai/ha): 65% | % herbicidal activity (weed control, 0-100 scale) at 15 g/ha (Brachiaria decumbens [8]; Urochloa decumbens, 480 h, flumioxazin WG 51% solo 15 gai/ha): 40% | inhibition at 3.75 g/ha (Apera spica-venti): 25% | percent weed control (herbicidal activity, 0-100 scale) at 3.75 g/ha (Ambrosia elatior; Ambrosia artemisiifolia, 480 h, 20 DAT, flumioxazin WG 51% solo 3.75 gai/ha): 0% | percent weed control (herbicidal activity, 0-100 scale) at […] (Ambrosia elatior; Ambrosia artemisiifolia, 480 h, 20 DAT, flumioxazin WG 51% solo 7.5 gai/ha): 0%

C#CCN1C(=O)C(F)(F)Oc2cc(F)c(-n3c(=O)n(C)c(=S)n(C)c3=O)cc21 [trifludimoxazin]
% activity (Avena fatua): 50% | % activity, solo application (Helianthus annuus; 18 gai/ha (SC 500 g/l), 20 DAT, Table X2): 0% | % activity (Helianthus annuus; [12]): 0% | % activity (Helianthus annuus; [13]): 30% | % activity (Lolium multiflorum; trifludimoxazin solo 36 gai/ha): 75% | % activity, solo application (Setaria viridis [1]; [14]): 75% | % activity, solo application (Galium aparine; [15]): 0% | % activity, solo application (Galium aparine; 9 gai/ha (SC 500 g/l), 20 DAT): 0% | % activity, solo application (Galium aparine; 18 gai/ha (SC 500 g/l), 20 DAT): 0% | % activity, solo application (Galium aparine; 36 gai/ha (SC 500 g/l), 20 DAT): 40% | % activity (Galium aparine; trifludimoxazin solo 4.5 gai/ha, 20 DAT): 0% | % activity (Galium aparine; trifludimoxazin solo 9 gai/ha, 20 DAT): 0% | % activity (Galium aparine; [12]): 0% | % activity (Galium aparine; [13]): 40% | % activity, solo application (Digitaria sanguinalis [2]; [14]): 50% | % activity, solo application (Brachiaria decumbens [8]; 9 gai/ha (SC 500 g/l), Table X2): 45% | % activity (Brachiaria decumbens [8]; trifludimoxazin solo 18 gai/ha): 50% | % activity (Brachiaria decumbens [8]; trifludimoxazin solo 36 gai/ha): 80% | % activity, solo application (Ambrosia elatior; [15]): 0% | % activity, solo application (Ambrosia elatior; 9 gai/ha (SC 500 g/l), 20 DAT): 50%

Reference: US10966426B2, “Herbicidal compositions comprising phenylpyrimidines” (BASF SE, priority 2016, dated 2021)
